# US7985567B2, “Host cells and methods for producing 3-methyl-2-buten-1-ol, 3-methyl-3-buten-1-ol, and 3-methyl-butan-1-ol” (The Regents of the University of California, priority 2007, dated 2011)
# Test system: S. cerevisiae BY4741 cells
# Assay: In vivo reduction of 3-methyl-2-butenol or 3-methyl-3-butenol to 3-methyl-butanol by yeast
# Type: cell-based, Saccharomyces cerevisiae
# Settings: 1 g/l substrate added after 48 hours, grown an additional 2 days; versus no substrate or 3-methyl-3-butenol; FIG. 3
# Experimental: To test the capability of yeast to catalyze the conversion of 3-methyl-2-butenol to isopentanol, 5 ml. of YPD medium with 2% glycerol, in a 100 ml culture tube, was inoculated with an overnight culture of freshly plated S. cerevisiae BY4741 cells to achieve a final absorbance of 0.5 at 600 nm (A600). The cultures were grown at 30° C. at 200 r.p.m. After 48 hours, either 3-methyl-2-butenol or 3-methyl-3-butenol (1 g/l) was added to the culture.
# Cultures were sampled after addition of 3-methyl-2-butenol or 3-methyl-3-butenol and grown for an additional 2 days. The samples were collected by pelleting 1 ml of culture, and adding 150 μl of the supernatant to 750 μl of the extraction solvent (80:20 chloroform:methanol spiked with 50 mg l^−1 of butanol internal standard). The samples were vortexed for 15 minutes and centrifuged for 2 minutes at 5000 r.c.f. 450 μl of the organic layer was removed from each sample and transferred to a clean GC vial for analysis. The GC-MS data were collected in full-scan mode (m/z 50-300) using a Tr-Wax column (0.25 mm×30 m, 0.25 μm film thickness; Thermo Electron) on a PolarisQ GC-MS with TriPlusautosampler (Thermo Electron). The carrier flow was 1.2 ml min^−1, and the inlet temperature was set to 200° C. The oven program was as follows: 40° C. […] Samples were normalized using the butanol internal standard and quantified using authentic standards.
compound,measurement,value
"CC(C)=CCO [3-methyl-2-butenol, 3-methyl-2-buten-1-ol]",isopentanol production by yeast grown in the presence of the alcohol substrate,significantly more isopentanol
